In brackets after ≈: the same amount, converted by molar mass. Activity calls are given as the source filed them. No cut-off for these calls is given here.
Legend:
Plasmodium falciparum [1] = experiment: Potency index, ratio of chloroquine IC50 to compound IC50 for antiplasmodial activity against chloroquine-resistant Plasmodium falciparum Dd2; type: functional
Calf thymus DNA [2] = experiment: Binding affinity to calf thymus DNA by UV-visible absorption spectral analysis; type: nucleic-acid assay; settings: Bos taurus
mu-oxodimeric heme [3] = experiment: Binding affinity to mu-oxodimeric heme assessed as decrease in soret band intensity up to 26.7 uM at pH 5.8 by titration-based UV-vis spectrophotometric analysis
Heme [4] = experiment: Binding affinity to monomeric heme at pH 5.6 by titration-based UV-vis spectrophotometric analysis
Calf thymus DNA [5] = experiment: Binding affinity to calf thymus DNA assessed as association constant by Benesi-Hildebrand equation analysis; type: nucleic-acid assay; settings: Bos taurus
[6] = n-octanol-phosphate buffer distribution coefficient, log D of the compound at pH 7.4 after 1 hr by HPLC method; type: physicochemical
Calf thymus DNA [7] = experiment: Binding affinity to calf thymus DNA at 66 uM by UV-visible absorption spectral analysis; type: nucleic-acid assay; settings: Bos taurus
in vitro = settings: monkey, Vero cells
Description: Selectivity index, ratio of IC50 for African green monkey Vero cells to IC50 for chloroquine-sensitive Plasmodium falciparum NF54

Plasmodium falciparum [8] = experiment: microbe, parasite or virus in culture; settings: Dd2
Description: Antiplasmodial activity against chloroquine-resistant Plasmodium falciparum Dd2 by LDH release assay

unidentified = experiment: Inhibition of acetate buffer-initiated beta-hematin polymerization at 1.2 equiv measured after 1 hr by FT-IR spectroscopic method
Calf thymus DNA [9] = experiment: Binding affinity to calf thymus DNA at 17.1 uM by fluorimetry analysis; type: nucleic-acid assay; settings: Bos taurus
DNA [10] = experiment: Binding affinity to Escherichia coli pUC18 DNA by UV-visible absorption spectral analysis; type: nucleic-acid assay
Vero = experiment: Cytotoxicity against African green monkey Vero cells assessed as reduction in cell viability by MTT assay; type: cell-based; settings: Chlorocebus sabaeus
Calf thymus DNA [11] = experiment: Binding affinity to calf thymus DNA assessed as change in melting temperature at DNA to compound ratio of 5:1; type: nucleic-acid assay; settings: Bos taurus
Plasmodium falciparum [12] = experiment: microbe, parasite or virus in culture; settings: NF54
Description: Antiplasmodial activity against chloroquine-sensitive Plasmodium falciparum NF54 by LDH release assay

Heme [13] = experiment: Binding affinity to monomeric heme at 5 umol by HRMS mass spectrum analysis
mu-oxodimeric heme [14] = experiment: Binding affinity to mu-oxodimeric heme at pH 5.8 by titration-based UV-vis spectrophotometric analysis
Heme [15] = experiment: Binding affinity to monomeric heme at pH 7.4 by titration-based UV-vis spectrophotometric analysis
Heme [16] = experiment: Binding affinity to monomeric heme by 1H NMR method
Heme [17] = experiment: Binding affinity to monomeric heme assessed as decrease in soret band intensity up to 40 uM at pH 5.6 to 7.4 by titration-based UV-vis spectrophotometric analysis
DNA [18] = experiment: Binding affinity to Escherichia coli pUC18 DNA at 17.1 uM by fluorimetry analysis; type: nucleic-acid assay
[19] = Aqueous solubility in pH 7.4 PBS buffer after 24 hrs by HPLC analysis; type: physicochemical
[20] = Solubility in n-octanol at pH 7.4 after 24 hrs by HPLC analysis; type: physicochemical

Compound | Ratio IC50 (Plasmodium falciparum [1]) | logD at 1 h [6] | IC50 (Vero) [µM] | IC50 (Plasmodium falciparum [12]) [µM] | solubility at 24 h [19] [µM] | solubility at 24 h [20] [µM] | further results
Clc1ccc2c(NCCCNc3ccnc(N4CCOCC4)n3)ccnc2c1 | 3.2 | – | – | – | – | – | –
Cc1nc(OCc2cn(CCCNc3ccnc4cc(Cl)ccc34)nn2)nc(-c2ccc([N+](=O)[O-])cc2)c1C(=O)OC(C)C | – | 1.43 | 15.2 | 0.048 | 0.55 (≈ 0.339 µg/mL) | 14.9 (≈ 9.18 µg/mL) | log K (Calf thymus DNA [2]): 3.74; Activity (mu-oxodimeric heme [3]): Active; log K (Heme [4]): 4.27; log K (Calf thymus DNA [5]): 2.29; Activity (Calf thymus DNA [7]): Active; selectivity ratio (in vitro): 318; IC50 (Plasmodium falciparum [8]): 4.59 µM; inhibition (unidentified): Active; Activity (Calf thymus DNA [9]): Active; log K (DNA [10]): 3.92; ΔTm (Calf thymus DNA [11]): 2.5 °C; Activity (Heme [13]): Active; log K (mu-oxodimeric heme [14]): 5.43; log K (Heme [15]): 4.68; Activity (Heme [16]): Active; Activity (Heme [17]): Active; Activity (DNA [18]): Active
Cc1nc(OCc2cn(CCCNc3ccnc4cc(Cl)ccc34)nn2)nc(-c2ccccc2)c1C(=O)OC(C)C | – | 1.72 | 28.5 | 0.33 | 1.21 (≈ 0.692 µg/mL) | 63.5 (≈ 36.3 µg/mL) | selectivity ratio (in vitro): 86.4; IC50 (Plasmodium falciparum [8]): 0.61 µM
COC(=O)c1c(C)nc(OCc2cn(-c3ccnc4cc(Cl)ccc34)nn2)nc1-c1ccccc1 | – | 0.69 | – | 15.8 | 3.31 (≈ 1.61 µg/mL) | 16.3 (≈ 7.96 µg/mL) | –
Clc1ccc2c(NCCCNc3ccnc(Cl)n3)ccnc2c1 | 3.2 | – | – | – | – | – | –
CCOC(=O)c1c(C)nc(OCc2cn(CCNc3ccnc4cc(Cl)ccc34)nn2)nc1C | – | 0.27 | > 207 | 2.49 | 19.1 (≈ 9.21 µg/mL) | 35.6 (≈ 17.2 µg/mL) | selectivity ratio (in vitro): > 83; IC50 (Plasmodium falciparum [8]): 8.14 µM
Clc1ccc2c(NCCCOc3nccc(Cl)n3)ccnc2c1 | 3.2 | – | – | – | – | – | –
COC(=O)c1c(C)nc(OCc2cn(CCNc3ccnc4cc(Cl)ccc34)nn2)nc1-c1ccccc1 | – | 0.58 | – | 10.4 | 11.3 (≈ 5.99 µg/mL) | 44.7 (≈ 23.7 µg/mL) | –
Cc1nc(OCc2cn(-c3ccnc4cc(Cl)ccc34)nn2)nc(-c2ccccc2)c1C(=O)OC(C)C | – | 1.46 | – | 14 | 1.78 (≈ 0.917 µg/mL) | 52.5 (≈ 27 µg/mL) | –
Clc1ccc2c(NCCCNc3nccc(N4CCCC4)n3)ccnc2c1 | 3.2 | – | – | – | – | – | –
CCOC(=O)c1c(C)nc(OCc2cn(CCCNc3ccnc4cc(Cl)ccc34)nn2)nc1C | – | 0.42 | > 201 | 0.7 | 8.01 (≈ 3.97 µg/mL) | 21.2 (≈ 10.5 µg/mL) | selectivity ratio (in vitro): > 287; IC50 (Plasmodium falciparum [8]): 1.11 µM
Clc1ccc2c(NCCNc3nccc(Cl)n3)ccnc2c1 | 3.2 | – | – | – | – | – | –
Clc1ccc2c(NCCCNc3ccnc(N4CCCCC4)n3)ccnc2c1 | 3.2 | – | – | – | – | – | –
C[C@H]1[C@H](OC(=O)CCC(=O)O)O[C@@H]2O[C@@]3(C)CC[C@H]4[C@H](C)CC[C@@H]1[C@@]24OO3 [ARTESUNATE] | – | – | – | < 5.2 | – | – | –
Clc1ccc2c(NCCCNc3nccc(N4CCNCC4)n3)ccnc2c1 | 3.2 | – | – | – | – | – | –
CCN(CC)CCCC(C)Nc1ccnc2cc(Cl)ccc12 (stereo not given) | – | – | – | – | – | – | ΔTm (Calf thymus DNA [11]): 4 °C
Cc1nc(OCc2cn(CCNc3ccnc4cc(Cl)ccc34)nn2)nc(-c2ccccc2[N+](=O)[O-])c1C(=O)OC(C)C | – | 0.86 | 145 | 0.53 | 2.3 (≈ 1.39 µg/mL) | 16.7 (≈ 10.1 µg/mL) | selectivity ratio (in vitro): 274; IC50 (Plasmodium falciparum [8]): 1.08 µM
Clc1ccc2c(NCCCCCCCCCCNc3nccc(Cl)n3)ccnc2c1 | 3.2 | – | – | – | – | – | –
CCOC(=O)c1c(C)nc(OCc2cn(-c3ccnc4cc(Cl)ccc34)nn2)nc1C | – | 0.39 | – | 84.2 | 7.18 (≈ 3.15 µg/mL) | 17.8 (≈ 7.8 µg/mL) | –

Compound | Ratio IC50 (Plasmodium falciparum [1]) | logD at 1 h [6] | IC50 (Vero) [µM] | IC50 (Plasmodium falciparum [12]) [µM] | solubility at 24 h [19] [µM] | solubility at 24 h [20] [µM] | further results
Cc1nc(OCc2cn(CCNc3ccnc4cc(Cl)ccc34)nn2)nc(-c2ccccc2)c1C(=O)OC(C)C | – | 1.21 | 149 | 0.64 | 3.21 (≈ 1.79 µg/mL) | 53.1 (≈ 29.6 µg/mL) | selectivity ratio (in vitro): 232; IC50 (Plasmodium falciparum [8]): 2 µM
Clc1ccnc(N2CCOCC2)n1 | 3.2 | – | – | – | – | – | –
CCOC(=O)c1c(C)nc(OCc2cn(CCNc3ccnc4cc(Cl)ccc34)nn2)nc1-c1ccccc1 | – | 0.81 | 149 | 1.49 | 3.3 (≈ 1.8 µg/mL) | 21.7 (≈ 11.8 µg/mL) | selectivity ratio (in vitro): 100; IC50 (Plasmodium falciparum [8]): 2.52 µM
Cc1nc(OCc2cn(-c3ccnc4cc(Cl)ccc34)nn2)nc(-c2ccccc2[N+](=O)[O-])c1C(=O)OC(C)C | – | 1.1 | – | 16.1 | 2.93 (≈ 1.64 µg/mL) | 37.4 (≈ 20.9 µg/mL) | –
CCOC(=O)c1c(C)nc(OCc2cn(-c3ccnc4cc(Cl)ccc34)nn2)nc1-c1ccccc1 | – | 1.08 | – | 12.2 | 5.47 (≈ 2.74 µg/mL) | 66.2 (≈ 33.2 µg/mL) | –
Clc1ccc2c(NCCCCCCCCCCCCNc3nccc(Cl)n3)ccnc2c1 | 3.2 | – | – | – | – | – | –
COC(=O)c1c(C)nc(OCc2cn(CCCNc3ccnc4cc(Cl)ccc34)nn2)nc1-c1ccccc1 | – | 0.78 | 156 | 1.01 | 5.64 (≈ 3.07 µg/mL) | 34.2 (≈ 18.6 µg/mL) | selectivity ratio (in vitro): 154; IC50 (Plasmodium falciparum [8]): 1.65 µM
CCOC(=O)c1c(C)nc(OCc2cn(CCCNc3ccnc4cc(Cl)ccc34)nn2)nc1-c1ccccc1 | – | 1.19 | 153 | 0.89 | 3.11 (≈ 1.74 µg/mL) | 48.3 (≈ 27 µg/mL) | selectivity ratio (in vitro): 172; IC50 (Plasmodium falciparum [8]): 1.37 µM
Clc1ccc2c(NCCCCCCCCNc3ccnc(Cl)n3)ccnc2c1 | 3.2 | – | – | – | – | – | –
Clc1ccc2c(NCCCNc3nccc(N4CCCCC4)n3)ccnc2c1 | 3.2 | – | – | – | – | – | –
Clc1ccc2c(NCCCNc3nccc(N4CCOCC4)n3)ccnc2c1 | 3.2 | – | – | – | – | – | –
Clc1ccc2c(NCCCCCCCNc3nccc(Cl)n3)ccnc2c1 | 3.2 | – | – | – | – | – | –
Cc1nccc(NCCNc2ccnc3cc(Cl)ccc23)n1 | 3.2 | – | – | – | – | – | –
Clc1ccc2c(NCCCCNc3nccc(Cl)n3)ccnc2c1 | 3.2 | – | – | – | – | – | –
CC[C@H]1CN2CCc3cc(OC)c(OC)cc3[C@@H]2C[C@@H]1C[C@H]1NCCc2cc(OC)c(OC)cc21 [EMETINE] | – | – | 0.176 | – | – | – | –
Clc1ccc2c(NCCCCCCCCNc3nccc(Cl)n3)ccnc2c1 | 3.2 | – | – | – | – | – | –
Cc1nc(OCc2cn(CCCNc3ccnc4cc(Cl)ccc34)nn2)nc(-c2ccccc2[N+](=O)[O-])c1C(=O)OC(C)C | – | 1.31 | 23.4 | 0.6 | 0.58 (≈ 0.358 µg/mL) | 12.1 (≈ 7.49 µg/mL) | selectivity ratio (in vitro): 38.9; IC50 (Plasmodium falciparum [8]): 0.86 µM
Cc1nc(OCc2cn(CCNc3ccnc4cc(Cl)ccc34)nn2)nc(-c2ccc([N+](=O)[O-])cc2)c1C(=O)OC(C)C | – | 0.88 | 150 | 0.18 | 7.03 (≈ 4.24 µg/mL) | 54.4 (≈ 32.8 µg/mL) | selectivity ratio (in vitro): 833; IC50 (Plasmodium falciparum [8]): 0.99 µM
Cc1nc(OCc2cn(-c3ccnc4cc(Cl)ccc34)nn2)nc(-c2ccc([N+](=O)[O-])cc2)c1C(=O)OC(C)C | – | 1.12 | – | 7.86 | 4.54 (≈ 2.54 µg/mL) | 60.5 (≈ 33.9 µg/mL) | –
